Data published in US9376380B2 (University of Pittsburgh—Of the Commonwealth System of …, priority 2011, dated 2016).

Target: CB2 receptor (Homo sapiens, UniProt P34972)
Assay: [3H]CP-55,940 radioligand competition binding, CB2
Design: host or cells: cell membrane preparations
Settings: for SI: selectivity index for CB2: Ki(CB1)/Ki(CB2) ratio; for Ki: [3H]CP-55,940 displacement, read-out: Ki (CB2)

Chain of CB2 receptor (P34972 whole entry): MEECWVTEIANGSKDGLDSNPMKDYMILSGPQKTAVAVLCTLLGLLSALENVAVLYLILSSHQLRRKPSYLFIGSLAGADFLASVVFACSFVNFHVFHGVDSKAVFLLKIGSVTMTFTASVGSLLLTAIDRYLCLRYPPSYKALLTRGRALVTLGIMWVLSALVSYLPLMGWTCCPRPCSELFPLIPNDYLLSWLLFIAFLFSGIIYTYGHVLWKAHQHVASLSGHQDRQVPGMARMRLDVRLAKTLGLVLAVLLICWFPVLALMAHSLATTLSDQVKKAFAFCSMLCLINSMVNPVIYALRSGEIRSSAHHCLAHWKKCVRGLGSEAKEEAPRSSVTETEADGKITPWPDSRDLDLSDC

| SI: selectivity index for CB2 | Ki [µM] | SMILES |
| --- | --- | --- |
|  | 3.08 | O=C(Cc1ccccc1)NC(NC(=O)Cc1ccccc1)c1ccc(Cl)cc1 [Compound 6, N,N′-((4-chlorophenyl)methylene)bis(2-phenylacetamide)] |
| >26 | 0.783 | COc1ccc(C(NC(=O)Cc2ccccc2)NC(=O)Cc2ccccc2)cc1 [Compound 10, N,N′-((4-methoxyphenyl)methylene)bis(2-phenylacetamide)] |
|  | 11.8 | O=C(Cc1ccccc1)NC(NC(=O)Cc1ccccc1)c1ccccc1C(F)(F)F [Compound 13, N,N′-((2-(trifluoromethyl)phenyl)methylene)bis(2-phenylacetamide)] |
| >34 | 0.596 | O=C(Cc1ccccc1)NC(NC(=O)Cc1ccccc1)c1ccc(C(F)(F)F)cc1 [Compound 14, N,N′-((4-(trifluoromethyl)phenyl)methylene)bis(2-phenylacetamide)] |
|  | > 20 | O=C(Cc1ccccc1)NC(NC(=O)Cc1ccccc1)c1ccc([N+](=O)[O-])cc1 [Compound 15, N,N′-((4-nitrophenyl)methylene)bis(2-phenylacetamide)] |
| >34 | 0.595 | O=C(Cc1ccccc1)NC(NC(=O)Cc1ccccc1)c1ccc(N2CCCCC2)cc1 [Compound 19, N,N′-((4-(piperidin-1-yl)phenyl)methylene)bis(2-phenylacetamide)] |
|  | > 20 | O=C(Cc1ccc(Cl)cc1)NC(NC(=O)Cc1ccc(Cl)cc1)c1ccccc1 [Compound 21, N,N′-(phenylmethylene)bis(2-(4-chlorophenyl)acetamide)] |
|  | 10.8 | O=C(Cc1ccc(Cl)cc1)NC(NC(=O)Cc1ccc(Cl)cc1)c1ccccc1F [Compound 22, N,N′-((2-fluorophenyl)methylene)bis(2-(4-chlorophenyl)acetamide)] |
|  | > 20 | O=C(Cc1ccc(Cl)cc1)NC(NC(=O)Cc1ccc(Cl)cc1)c1ccc(F)cc1 [Compound 23, N,N′-((4-fluorophenyl)methylene)bis(2-(4-chlorophenyl)acetamide)] |
| >130 | 0.154 | O=C(Cc1ccc(Cl)cc1)NC(NC(=O)Cc1ccc(Cl)cc1)c1ccc(Cl)cc1 [Compound 24, N,N′-((4-chlorophenyl)methylene)bis(2-(4-chlorophenyl)acetamide)] |

Continued, compound first:

| SMILES | SI: selectivity index for CB2 | Ki [µM] |
| --- | --- | --- |
| CCN(CC)c1ccc(CNC23CC4CC(CC(C4)C2)C3)cc1 [B, (3s,5s,7s)-N-(4-(Diethylamino)benzyl)adamantan-1-amine] | 130 | 20 |
| O=C(Cc1ccccc1)NC(NC(=O)Cc1ccccc1)c1ccccc1 [Compound 2, N,N′-(phenylmethylene)bis(2-phenylacetamide)] |  | 9.93 |
| O=C(Cc1ccccc1)NC(NC(=O)Cc1ccccc1)c1ccccc1F [Compound 3, N,N′-((2-fluorophenyl)methylene)bis(2-phenylacetamide)] |  | 35.3 |
| O=C(Cc1ccccc1)NC(NC(=O)Cc1ccccc1)c1cccc(F)c1 [Compound 4, N,N′-((3-fluorophenyl)methylene)bis(2-phenylacetamide)] |  | 12.7 |
| O=C(Cc1ccccc1)NC(NC(=O)Cc1ccccc1)c1ccc(F)cc1 [Compound 5, N,N′-((4-fluorophenyl)methylene)bis(2-phenylacetamide)] |  | 10.9 |
| O=C(Cc1ccccc1)NC(NC(=O)Cc1ccccc1)c1ccc(Br)cc1 [Compound 7, N,N′-((4-bromophenyl)methylene)bis(2-phenylacetamide)] |  | 2.23 |
| CCOc1ccc(C(NC(=O)Cc2ccccc2)NC(=O)Cc2ccccc2)cc1 [Compound 11, N,N′-((4-ethoxyphenyl)methylene)bis(2-phenylacetamide)] |  | 1.5 |
| CCCCN(CCCC)c1ccc(C(NC(=O)Cc2ccccc2)NC(=O)Cc2ccccc2)cc1 [Compound 18, N,N′-((4-(dibutylamino)phenyl)methylene)bis(2-phenylacetamide)] | >90 | 0.221 |
